Reference: US7202040B2, “Method for screening compounds which change the binding properties of a protein with a ligand” (Takeda Pharmaceutical Company Limited, priority 2001, dated 2007)

How the values were obtained:
[1] = test system: other receptor expression cells; experiment: cAMP production inhibitory activity on other receptor expression cells (specificity check); assay type: cell-based; conditions: receptor-specific
Description: The amino acid sequence of GPR34 is known to have low homology to the amino acid sequence of the platelet-activating factor receptor or the uridine diphosphate glycoside. Thus, various compounds including platelet-activating factor and uridine diphosphate glycoside, which are ligands to the receptors showing homology to GPR34, were administered to the GPR34-expressed CHO cells to examine the cAMP production inhibitory activity of these compounds on the GPR34-expressed CHO cells by the method shown in (1-4) described above.
The effect was not noted on the other receptor expression cells but was receptor-specific.

[2] = biological target: T1, GPR34-expressed CHO cells (Homo sapiens, UniProt Q9UPC5); experiment: Intracellular cAMP production inhibitory activity using GPR34-expressed CHO cells (forskolin-stimulated, cAMP EIA); assay type: cell-based; conditions: 2 μM forskolin, FIG. 1
T1 construct: expressed in transfected cells
T1 sequence (Q9UPC5 whole entry): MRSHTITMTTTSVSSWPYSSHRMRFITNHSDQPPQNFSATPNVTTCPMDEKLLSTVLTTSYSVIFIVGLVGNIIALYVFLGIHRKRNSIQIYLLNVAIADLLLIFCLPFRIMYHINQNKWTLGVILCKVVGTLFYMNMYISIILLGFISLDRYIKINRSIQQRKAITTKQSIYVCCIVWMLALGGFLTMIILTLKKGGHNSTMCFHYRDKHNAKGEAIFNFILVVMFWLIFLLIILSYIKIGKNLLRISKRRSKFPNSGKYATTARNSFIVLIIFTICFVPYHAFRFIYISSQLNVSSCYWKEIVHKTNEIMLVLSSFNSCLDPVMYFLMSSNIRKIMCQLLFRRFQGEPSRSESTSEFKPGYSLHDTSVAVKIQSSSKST
Description: The GPR34-expressed CHO cells prepared in (1-2) described above and selected in (1-2) described above were plated on a 24-well plate in 6×10^4 cells/well followed by incubation for 48 hours. The cells were washed with αMEM medium (pH 7.5) containing 0.2 mM 3-isobutyl-methylxanthine, 0.05% BSA and 20 mM HEPES (hereinafter αMEM medium (pH 7.5) containing 0.2 mM 3-isobutyl-methylxanthine, 0.05% BSA and 20 mM HEPES is referred to as the reaction buffer). Thereafter, 0.5 mL of the reaction buffer was added and the mixture was kept warm for 30 minutes in an incubator. The reaction buffer was removed and 0.25 mL of fresh reaction buffer was replenished to the cells. Then, 0.25 mL of the reaction buffer containing a sample and 2 μM forskolin was added to the cells, followed by reacting at 37° C. for 30 minutes. […] The cAMP level in the extract was quantified using the same kit. Based on this measurement data, the cAMP production inhibitory activity was calculated based on the equation shown below and expressed in terms of percentage to the control group. The activity in the group added with sample was calculated using each control value set on the same plate. % of control=(X−C)/(T−C)×100 wherein • X: cAMP level in the group added with sample • T: mean value of the cAMP levels in 3 wells of the groups without sample addition and with forskolin stimulation […]

Substance | cAMP production inhibitory effect on other receptor expression cells [1] | cAMP production inhibitory activity ([2]; in a higher concentration) | cAMP production inhibitory activity ([2]; 37° C. 30 minutes)
phosphatidylserine | not noted | marked activities | –
lysophosphatidylserine | not noted | – | marked activities
